Data set [1] can be described thus: Inhibition of Wistar rat kidney aldehyde reductase using D-glucuronate as substrate at 100 uM by spectrophotometry.
Data set [2] concerns the target Aldo-keto reductase family 1 member B1 (Rattus norvegicus) (UniProt P07943). The experiment in a line: Inhibition of Wistar rat lens aldose reductase using D,L-glyceraldehyde as substrate at 100 uM incubated for 1 min measured for 4 mins by spectrophotometry.
Data set [3] deals with Aldo-keto reductase family 1 member B1 (Rattus norvegicus, UniProt P07943). As to the kind of experiment: Inhibition of Wistar rat lens aldose reductase using D,L-glyceraldehyde as substrate incubated for 1 min measured for 4 mins by spectrophotometry.
Data set [4] is described as follows: Inhibition of Wistar rat kidney aldehyde reductase using D-glucuronate as substrate at 10 uM by spectrophotometry.
The target in data set [5] is Aldo-keto reductase family 1 member B1 (Rattus norvegicus) (UniProt P07943). As to the kind of experiment: Inhibition of Wistar rat lens aldose reductase using D,L-glyceraldehyde as substrate at 10 uM incubated for 1 min measured for 4 mins by spectrophotometry.
Data set [6] has as its target Aldo-keto reductase family 1 member B10 (Homo sapiens, UniProt O60218). The experiment in a line: Inhibition of human AKR1B10 using D-glucuronate as substrate by spectrophotometry.
Data set [7] is described as follows: Octanol-phosphate buffer partition coefficient, log D of the compound at 100 uM at pH 7.4 at RT after 1 hr by shake flask method. The class given is physicochemical.

Chain of Aldo-keto reductase family 1 member B10 (O60218 whole entry): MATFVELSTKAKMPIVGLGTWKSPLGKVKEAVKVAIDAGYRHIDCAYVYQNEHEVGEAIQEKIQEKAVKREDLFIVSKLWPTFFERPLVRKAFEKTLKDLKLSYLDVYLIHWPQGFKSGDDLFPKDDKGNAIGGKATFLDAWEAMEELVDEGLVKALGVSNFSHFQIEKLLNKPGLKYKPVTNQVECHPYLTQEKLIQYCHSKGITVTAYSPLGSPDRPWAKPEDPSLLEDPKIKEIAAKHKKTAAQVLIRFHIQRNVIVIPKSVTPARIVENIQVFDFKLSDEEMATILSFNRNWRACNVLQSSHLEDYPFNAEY

In the case of `CCN(CC)Cc1cn(CCC(=O)O)c2ccccc12`, the values for the inhibition in data set [1] and in data set [2] were 6.65% and 19.9%, respectively.

Take `O=C(O)Cn1c2ccccc2c2nnc(Sc3ccccc3F)nc21`: the results for the IC50 in data set [3] (read-out: IC50) and in data set [3] (read-out: pIC50 (converted)) were 2.24 µM and 2.19 µM, respectively. Besides, the inhibition (usually the drop in the measured response relative to a control, in per cent) in data set [4] was 1.18%.

For the compound `Cc1cc(C)c(NC(=O)CSc2nnc3c4ccccc4n(CC(=O)O)c3n2)c(C)c1`, the IC50 in data set [3] (read-out: IC50) stood at 4.06 µM. Further, in data set [4], the inhibition came out at 23.5%.

Turning to `O=C(O)Cn1c2ccccc2c2cn[nH]c(=O)c21`, the IC50 in data set [3] (read-out: IC50) turned out to be 11.5 µM. In data set [1], this compound returned an inhibition of 49%.

Turning to `O=C(O)Cn1c2ccccc2c2nc3ccccc3nc21`, the IC50 in data set [3] (read-out: IC50) stood at 2.75 µM.

As for `O=C(O)Cn1cc(Cc2nc3c(F)c(F)cc(F)c3s2)c2ccccc21` [LIDORESTAT], the IC50 in data set [3] (read-out: IC50) was determined as 0.005 µM.

As for `Cc1c(CN(C)C)c2ccccc2n1CC(=O)O`, the IC50 in data set [3] (read-out: IC50) was 42.2 µM. In data set [1], this compound yielded an inhibition of 22.3%.

Take `O=C(O)Cn1ccc2ccccc21`: the IC50 in data set [3] (read-out: IC50) is 7.3 µM.

In the case of `O=C(O)Cn1cc(N2CCOCC2)c2ccccc21`, in data set [3] (read-out: IC50), the IC50 is 34.5 µM. For the same compound, in data set [1], the inhibition stood at 32.5%.

As to `CC(C)Sc1nnc2c3ccccc3n(CC(=O)O)c2n1`, the IC50 in data set [3] (read-out: IC50) was 2.05 µM.

In data set [5], `O=C(O)CSc1nnc2c(n1)[nH]c1ccccc12` returned an inhibition of 3.46%.

In the case of `O=C(O)CCn1ccc2ccccc21`, the values for the inhibition in data set [1] and in data set [2] were 11.8% and 53.5%, respectively.

With `O=C(O)Cn1cc(N2CCCC2)c2ccccc21`, the IC50 in data set [3] (read-out: IC50) was found to be 46.5 µM. Further, the inhibition in data set [1] is 19.2%.

For the compound `Sc1nnc2c(n1)[nH]c1ccccc12`, the inhibition in data set [2] amounted to 4.41%.

Regarding `O=C(O)Cn1c2ccccc2c2nnc(S)nc21`, in data set [6], the IC50 is 21.4 µM. Further, the logD – broadly, the decadic logarithm of the distribution of all forms, ionised or not, between an organic phase and buffer at a given pH – at 1 h, 100 µM in data set [7] was -1.9.

`CCCNC(=O)CSc1nnc2c3cc(C)ccc3n(CC(=O)O)c2n1`: in data set [3] (read-out: IC50), the IC50 amounted to 0.33 µM.

`CCN(CC)Cc1cn(CC(=O)O)c2ccccc12`: in data set [3] (read-out: IC50), the IC50 is 30.1 µM. The inhibition in data set [1] was 38%.

On to `O=C(O)Cn1c2c(c3ccccc31)CCC2`, for which the IC50 in data set [3] (read-out: IC50) was found to be 2.87 µM.

As to `O=C(O)Cn1c2ccccc2c2nn3c(nc4ccccc43)nc21`, the IC50 in data set [3] (read-out: IC50) is 9.95 µM. Besides, the inhibition in data set [4] amounted to 15.1%.

For `CC(C)(C)C(=O)c1cn(CC(=O)O)c2ccccc12`, in data set [3] (read-out: IC50), the IC50 came to 13.8 µM.
